Experimental data reported in patent publication US20210078917A1, “FUNGICIDAL FERTILIZER COMPOSITION COMPRISING POTASSIUM PHOSPHITE AND GAMMA-POLY-GLUTAMIC ACID” (JIANGSU HUIFENG BIO AGRICULTURE CO., LTD., priority 2018, published 2021).

Assays:
[1] = tested on: potatoes; experiment: Yield increase test of potatoes (field); assay type: in vivo, potato
Procedure: (§1) (1) Yield increase and disease control test of potatoes with fungicidal fertilizer composition of the present invention. This test was conducted in 2017 in Anding District, Dingxi City, Gansu Province. This area is a typical semi-arid rain-fed agricultural area. The soil type is loessial soil, with deep soil layers and uniform soil fertility. The previous crop is rape. The fertilizer of the present invention was totally applied as a base fertilizer at a time. […] Ridging after flat planting in wide and narrow rows was adopted. The wide row spacing was 60 cm, the narrow row spacing was 30 cm, the plant spacing was 30 cm, the sowing depth was 15 cm, and the plant density was 58,000 plants·hm^−2. Other field management was the same as that in large area of field. The number of large- and medium-sized potatoes ([…]) per plant was randomly determined, and the relative increase rate of large- and medium-sized potatoes was determined. The yield per mu and the relative increase rate of yield were determined. The crude starch content and increase rate of crude starch content were determined. The control effect on root rot of potatoes was also determined.

[2] = tested on: root rot of potatoes; experiment: Disease control test of potatoes (field), root rot; assay type: in vivo, potato
Procedure: as §1

[3] = tested on: Disease (black fruit); experiment: Disease control test of Chinese wolfberry, black fruit; assay type: in vivo, Chinese wolfberry "Ningqi No. 7"
Procedure: The test was carried out in a Chinese wolfberry planting test plot in Koluke Town, Delingha City, Qinghai Province. Chinese wolfberry plants were all three-year-old seedlings of variety “Ningqi No. 7” at a density of 270 plants/667 m^2. This experiment was designed such that different plots were arranged in order. […] Fertilization method: It was applied together with other base fertilizers, by laying the fertilizer at the bottom of the planting pit, where the depth of the trench was 70 cm, the diameter of the pit was 80 cm, and the soil was mixed in and applied at the bottom when applying fertilizer. The yield, quality and control effect on disease on fresh Chinese wolfberry fruit were determined.

[4] = tested on: root rot, a soil-borne disease of soybeans; experiment: Disease control test of soybean, root rot; assay type: in vivo
Procedure: Fertilization method: The fertilizer was co-applied with other fertilizers. The yield, quality and control effect on disease on soybean were determined.

[5] = tested on: stem rot of peanut; experiment: Disease control test of peanut, stem rot; assay type: in vivo
Procedure: (§2) […]. Fertilization method: The fertilizer was applied three times by spraying during the flowering and fruiting period. The yield, quality and control effect on disease on peanut were determined.

[6] = tested on: Disease (blight); experiment: Disease control test of pepper, blight; assay type: in vivo; details: 40 g active ingredient per mu
Procedure: (§3) This fertilizer was applied on the basis of conventional fertilization in each treatment area. Fertilization method: The fertilizer was applied by spraying during the seedling stage of pepper. The yield, quality and control effect on disease on pepper were determined.

[7] = tested on: tomato; experiment: Yield increase and quality test of tomato; assay type: in vivo; details: 60 g active ingredient per mu
Procedure: […]. This fertilizer was applied on the basis of conventional fertilization in each treatment area. Fertilization method: The fertilizer was applied by spraying during the seedling stage of tomato. The yield, quality and control effect on disease on tomato were determined.

[8] = tested on: peanut; experiment: Yield increase and quality test of peanut; assay type: in vivo
Procedure: as §2

[9] = tested on: pepper; experiment: Yield increase and quality test of pepper; assay type: in vivo; details: 40 g active ingredient per mu
Procedure: as §3

[10] = tested on: Disease (rot); experiment: Disease control test of tomato, rot; assay type: in vivo; details: 60 g active ingredient per mu
Procedure: This fertilizer was applied on the basis of conventional fertilization in each treatment area. Fertilization method: The fertilizer was applied by spraying during the seedling stage of tomato. The yield, quality and control effect on disease on tomato were determined.

[11] = tested on: Chinese wolfberry; experiment: Yield increase and quality test of Chinese wolfberry; assay type: in vivo, Chinese wolfberry "Ningqi No. 7"
Procedure: The test was carried out in a Chinese wolfberry planting test plot in Koluke Town, Delingha City, Qinghai Province. Chinese wolfberry plants were all three-year-old seedlings of variety “Ningqi No. 7” at a density of 270 plants/667 m^2. This experiment was designed such that different plots were arranged in order. […]. Fertilization method: It was applied together with other base fertilizers, by laying the fertilizer at the bottom of the planting pit, where the depth of the trench was 70 cm, the diameter of the pit was 80 cm, and the soil was mixed in and applied at the bottom when applying fertilizer. The yield, quality and control effect on disease on fresh Chinese wolfberry fruit were determined.

[12] = amount 50 g active ingredient/mu
[13] = amount 100 g active ingredient/mu
[14] = amount 400 g active ingredient/mu

γ-poly-glutamic acid
Crude starch content [1, 12]: 16.1%
Fresh weight of large- and medium-sized potatoes [1, 12]: 481.3 g/plant
Increase rate of crude starch content [1, 12]: 1.9%
Increase rate of large- and medium-sized potatoes [1, 12]: 6.5%
Increase rate of yield [1, 12]: 4.4%
Yield [1, 12]: 1343 kg/mu
Crude starch content [1, 13]: 16.4%
Fresh weight of large- and medium-sized potatoes [1, 13]: 492.6 g/plant
Increase rate of crude starch content [1, 13]: 3.8%
Increase rate of large- and medium-sized potatoes [1, 13]: 9.0%
Increase rate of yield [1, 13]: 7.5%
Yield [1, 13]: 1383 kg/mu
Crude starch content [1, 14]: 17.1%
Fresh weight of large- and medium-sized potatoes [1, 14]: 499.3 g/plant
Increase rate of crude starch content [1, 14]: 8.2%
Increase rate of large- and medium-sized potatoes [1, 14]: 10.5%
Increase rate of yield [1, 14]: 10.6%
Yield [1, 14]: 1422 kg/mu
Control effect ([2]; amount 50 g active ingredient/mu, 10 days after application): 9.87%
Control effect ([2]; amount 50 g active ingredient/mu, 30 days after application): 4.34%
Control effect ([2]; amount 100 g active ingredient/mu, 10 days after application): 17.34%
Control effect ([2]; amount 100 g active ingredient/mu, 30 days after application): 14.47%
Control effect ([2]; amount 400 g active ingredient/mu, 10 days after application): 32.51%
Control effect ([2]; amount 400 g active ingredient/mu, 30 days after application): 25.37%
Disease (black fruit): Control effect ([3]; 50 g/mu, 10 days after application): 17.56%
Disease (black fruit): Control effect ([3]; 50 g/mu, 30 days after application): 10.99%
Disease (black fruit): Control effect ([3]; 100 g/mu, 10 days after application): 29.17%
Disease (black fruit): Control effect ([3]; 100 g/mu, 30 days after application): 21.35%
Control effect ([4]; 15 g/mu, 12 days after application): 9.70%
Control effect ([4]; 15 g/mu, 35 days after application): 4.22%
Control effect ([4]; 50 g/mu, 12 days after application): 14.20%
Control effect ([4]; 50 g/mu, 35 days after application): 7.86%
Control effect ([4]; 100 g/mu, 12 days after application): 20.13%
Control effect ([4]; 100 g/mu, 35 days after application): 10.67%
Control effect ([4]; 300 g/mu, 12 days after application): 22.71%
Control effect ([4]; 300 g/mu, 35 days after application): 15.76%
Control effect ([4]; 600 g/mu, 12 days after application): 27.52%
Control effect ([4]; 600 g/mu, 35 days after application): 18.89%
Disease (Stem rot): Control effect ([5]; 30 g/mu, 10 days after application): 20.41%
Disease (Stem rot): Control effect ([5]; 30 g/mu, 30 days after application): 6.21%
Disease (Stem rot): Control effect ([5]; 60 g/mu, 10 days after application): 31.29%
Disease (Stem rot): Control effect ([5]; 60 g/mu, 30 days after application): 11.58%
Disease (blight): Control effect ([6]; 10 days after application): 26.27%
Disease (blight): Control effect ([6]; 42 days after application): 10.26%
Quality: Amino acid [7]: 610.17 mg/100 kg
Quality: Vitamin C [7]: 17.32 mg/100 g
Yield: Total yield [7]: 3519 kg/mu
Yield: Weight of single fruit [7]: 21.7 g
Quality: Linoleic acid ([8]; 30 g/mu): 44.52%
Quality: Protein ([8]; 30 g/mu): 22.91%
Yield ([8]; 30 g/mu): 285.3 kg/mu
Yield: Seed yield ([8]; 30 g/mu): 66.7%
Yield: Weight per 100 fruits ([8]; 30 g/mu): 113.4 g
Quality: Linoleic acid ([8]; 60 g/mu): 45.36%
Quality: Protein ([8]; 60 g/mu): 24.31%
Yield ([8]; 60 g/mu): 310.8 kg/mu
Yield: Seed yield ([8]; 60 g/mu): 69.1%
Yield: Weight per 100 fruits ([8]; 60 g/mu): 126.7 g
Quality: Vitamin C [9]: 26.8 mg/100 g
Yield: Total yield [9]: 3382 kg/mu
Yield: Weight of single fruit [9]: 49.2 g
Disease (rot): Control effect ([10]; 12 days after application): 21.35%
Disease (rot): Control effect ([10]; 45 days after application): 7.26%
Quality: Polysaccharide ([11]; 50 g/mu): 8.79%
Quality: Total amino acid content ([11]; 50 g/mu): 7.53%
Yield of fresh Chinese wolfberry fruit: Weight per 100 fruits ([11]; 50 g/mu): 117.5 g
Yield of fresh Chinese wolfberry fruit: Yield ([11]; 50 g/mu): 2524.5 kg/mu
Quality: Polysaccharide ([11]; 100 g/mu): 9.54%
Quality: Total amino acid content ([11]; 100 g/mu): 7.68%
Yield of fresh Chinese wolfberry fruit: Weight per 100 fruits ([11]; 100 g/mu): 124.7 g
Yield of fresh Chinese wolfberry fruit: Yield ([11]; 100 g/mu): 2658.6 kg/mu
